Test results taken from US20100261719A1, “CHEMICAL COMPOUNDS” (priority 2007, published 2010).

What follows are compounds tested against Escherichia coli DNA gyrase A/B tetramer (Escherichia coli, UniProt P0AES4+P0AES6) (assay: DNA gyrase supercoiling activity fluorescence polarisation assay).
Type: biochemical
Method: In a black, 384-well polystyrene assay plate, 30 microliters/well of 5 nM Escherichia coli DNA gyrase A/B tetramer and 130 micrograms/ml of topologically relaxed plasmid containing the triplex-forming sequence […] in an assay buffer consisting of 35 mM Tris-HCl (pH 7.5), 24 mM KCl, 4 mM MgCl2, 2 mM dithiothreitol, 1.8 mM spermidine, 5% (v/v) glycerol, 200 nM bovine serum albumin, 0.8% dimethylsulfoxide, and 0.3 mM ATP may be incubated at ambient temperature for (typically 30 minutes) in the absence or presence of 5-10 different concentrations of test compound. The supercoiling reactions may be quenched by the addition of 10 microliters/well of 40 nM oligodeoxynucleotide probe in 3× triplex-forming buffer consisting of 150 mM NaCl, and 150 mM sodium acetate at pH 3.5. The oligodeoxynucleotide probe may be 5′-BODIPY-FL-labeled TTCTTCTTC. After 60 minutes, the fluorescence anisotropy of the BODIPY-FL may be measured in a Tecan Ultra plate reader, using 485 nm excitation and 535 nm emission filters equipped with polarizers. The IC50 may be determined by nonliner regression using two control reactions. The first contains no test compound but 0.8% DMSO (100% activity) while the second control reaction contains 5 uM Ciprofloxacin and 0.8% DMSO (0% activity).
When tested in an in-vitro assay based on the DNA gyrase supercoiling activity fluorescence polarisation assay described above, the E. coli DNA gyrase supercoiling IC50 assay inhibitory activity of the following Examples was measured at the indicated IC50.

Sequence of Escherichia coli DNA gyrase A/B tetramer (P0AES4 whole entry, one chain of several): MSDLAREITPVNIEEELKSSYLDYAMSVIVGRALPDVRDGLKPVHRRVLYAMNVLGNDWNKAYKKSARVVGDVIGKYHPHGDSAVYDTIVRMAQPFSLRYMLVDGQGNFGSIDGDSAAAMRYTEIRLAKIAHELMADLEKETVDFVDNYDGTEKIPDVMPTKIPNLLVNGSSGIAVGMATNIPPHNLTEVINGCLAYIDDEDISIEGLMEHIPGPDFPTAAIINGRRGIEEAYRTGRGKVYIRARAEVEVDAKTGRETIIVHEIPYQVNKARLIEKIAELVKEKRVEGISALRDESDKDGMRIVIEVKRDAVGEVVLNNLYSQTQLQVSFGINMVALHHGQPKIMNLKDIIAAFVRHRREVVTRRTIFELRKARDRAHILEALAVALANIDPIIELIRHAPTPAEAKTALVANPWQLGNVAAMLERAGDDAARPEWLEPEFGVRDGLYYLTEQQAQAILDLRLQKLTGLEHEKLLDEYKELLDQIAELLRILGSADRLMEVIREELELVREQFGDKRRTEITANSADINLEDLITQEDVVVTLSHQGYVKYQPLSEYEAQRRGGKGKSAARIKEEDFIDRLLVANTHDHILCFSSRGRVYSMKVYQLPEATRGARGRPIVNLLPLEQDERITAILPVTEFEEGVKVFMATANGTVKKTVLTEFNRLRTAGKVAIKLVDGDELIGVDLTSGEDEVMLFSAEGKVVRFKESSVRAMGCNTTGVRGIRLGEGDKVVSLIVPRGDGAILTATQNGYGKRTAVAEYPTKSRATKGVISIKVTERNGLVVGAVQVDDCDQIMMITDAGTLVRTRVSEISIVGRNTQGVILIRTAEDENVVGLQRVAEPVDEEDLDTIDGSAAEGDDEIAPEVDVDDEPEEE

| SMILES | IC50 |
| --- | --- |
| C[C@@H]1CN2c3ccc(NC(=O)N(C)C)cc3CC3(C(=O)NC(=O)NC3=O)[C@H]2[C@H](C)O1 (relative stereo) [Example 77, 3-[(2R,4S,4aS)-rel-2,4-Dimethyl-2′,4′,6′-trioxo-1,1′,2,3′,4,4′,4a,6′-octahydro-2′H,6H-spiro[1,4-oxazino[4,3-a]quinoline-5,5′-pyrimidin]-8-yl]-1,1-dimethylurea] | 21700 nM |
| C[C@H]1CN2c3c(cc(C#Cc4cnccn4)c(F)c3F)CC3(C(=O)NC(=O)NC3=O)[C@@H]2[C@@H](C)O1 (relative stereo) [Example 20, (2S,4R,4aR)-rel-9,10-Difluoro-2,4-dimethyl-8-(pyrazin-2-ylethynyl)-1,2,4,4a-tetrahydro-2′H,6H-spiro[1,4-oxazino[4,3-a]quinoline-5,5′-pyrimidine]-2′,4′,6′(1′H,3′H)-trione] | 490 nM |
| C/C(=N\NC(N)=O)c1cc2c(c(F)c1F)N1C[C@@H](C)O[C@@H](C)[C@@H]1C1(C2)C(=O)NC(=O)NC1=O (relative stereo) [Example 54, (2E)-2-{1-[(2R,4S,4aS)-rel-9,10-Difluoro-2,4-dimethyl-2′,4′,6′-trioxo-1,1′,2,3′,4,4′,4a,6′-octahydro-2′H,6H-spiro[1,4-oxazino[4,3-a]quinoline-5,5′-pyrimidin]-8-yl]ethylidene}hydrazinecarboxamide] | 2300 nM |
| C[C@H]1CN2c3c(cc(C#Cc4nccs4)c(F)c3F)CC3(C(=O)NC(=O)NC3=O)[C@@H]2[C@@H](C)O1 (relative stereo) [Example 8, (2S,4R,4aR)-rel-9,10-Difluoro-2,4-dimethyl-8-(1,3-thiazol-2-ylethynyl)-1,2,4,4a-tetrahydro-2′H,6H-spiro[1,4-oxazino[4,3-a]quinoline-5,5′-pyrimidine]-2′,4′,6′(1′H,3′H)-trione] | 1290 nM |
| C[C@H]1CN2c3c(cc(C#Cc4c[nH]cn4)c(F)c3F)CC3(C(=O)NC(=O)NC3=O)[C@@H]2[C@@H](C)O1 (relative stereo) [Example 15, (2S,4R,4aR)-rel-9,10-Difluoro-8-(1H-imidazol-4-ylethynyl)-2,4-dimethyl-1,2,4,4a-tetrahydro-2′H,6H-spiro[1,4-oxazino[4,3-a]quinoline-5,5′-pyrimidine]-2′,4′,6′(1′H,3′H)-trione] | 700 nM |
| C[C@@H]1CN2c3ccc(C#Cc4ccncc4)cc3CC3(C(=O)NC(=O)NC3=O)[C@H]2[C@H](C)O1 (relative stereo) [Example 3, (2R,4S,4aS)-rel-2,4-Dimethyl-8-(pyridin-4-ylethynyl)-1,2,4,4a-tetrahydro-2′H,6H-spiro[1,4-oxazino[4,3-a]quinoline-5,5′-pyrimidine]-2′,4′,6′(1′H,3′H)-trione] | 2480 nM |
| C[C@@H]1CN2c3cc(F)c(C#Cc4cnccn4)cc3CC3(C(=O)NC(=O)NC3=O)[C@H]2[C@H](C)O1 (relative stereo) [Example 31, (2R,4S,4aS)-rel-9-Fluoro-2,4-dimethyl-8-(pyrazin-2-ylethynyl)-1,2,4,4a-tetrahydro-2′H,6H-spiro[1,4-oxazino[4,3-a]quinoline-5,5′-pyrimidine]-2′,4′,6′(1′H,3′H)-trione] | 980 nM |
| C[C@H]1CN2c3c(cc(C#Cc4cncs4)c(F)c3F)CC3(C(=O)NC(=O)NC3=O)[C@@H]2[C@@H](C)O1 (relative stereo) [Example 9, (2S,4R,4aR)-rel-9,10-Difluoro-2,4-dimethyl-8-(1,3-thiazol-5-ylethynyl)-1,2,4,4a-tetrahydro-2′H,6H-spiro[1,4-oxazino[4,3-a]quinoline-5,5′-pyrimidine]-2′,4′,6′(1′H,3′H)-trione] | 700 nM |
| CC(=O)N/N=C(\C)c1cc2c(c(F)c1F)N1C[C@@H](C)O[C@@H](C)[C@@H]1C1(C2)C(=O)NC(=O)NC1=O (relative stereo) [Example 48, N′-{(1E)-1-[(2R,4S,4aS)-rel-9,10-Difluoro-2,4-dimethyl-2′,4′,6′-trioxo-1,1′,2,3′,4,4′,4a,6′-octahydro-2′H,6H-spiro[1,4-oxazino[4,3-a]quinoline-5,5′-pyrimidin]-8-yl]ethylidene}acetohydrazide] | 1300 nM |
| C[C@@H]1CN2c3ccc(C#Cc4ccccn4)cc3CC3(C(=O)NC(=O)NC3=O)C2[C@H](C)O1 (relative stereo) [Example 2, (2R,4S)-rel-2,4-Dimethyl-8-(pyridin-2-ylethynyl)-1,2,4,4a-tetrahydro-2′H,6H-spiro[1,4-oxazino[4,3-a]quinoline-5,5′-pyrimidine]-2′,4′,6′(1′H,3′H)-trione] | 2090 nM |
| C[C@@H]1CN2c3c(cc(C(=O)NC4CCN(c5ccccn5)CC4)c(F)c3F)CC3(C(=O)NC(=O)NC3=O)[C@H]2[C@H](C)O1 (relative stereo) [Example 68, (2R,4S,4aS)-rel-9,10-Difluoro-2,4-dimethyl-2′,4′,6′-trioxo-N-[1-(pyridin-2-yl)piperidin-4-yl]-1,1′,2,3′,4,4′,4a,6′-octahydro-2′H,6H-spiro[1,4-oxazino[4,3-a]quinoline-5,5′-pyrimidine]-8-carboxamide] | 4150 nM |
| C[C@@H]1CN2c3c(F)cc(C#Cc4cnccn4)cc3CC3(C(=O)NC(=O)NC3=O)[C@H]2[C@H](C)O1 (relative stereo) [Example 43, (2R,4S,4aS)-rel-10-Fluoro-2,4-dimethyl-8-(pyrazin-2-ylethynyl)-1,2,4,4a-tetrahydro-2′H,6H-spiro[1,4-oxazino[4,3-a]quinoline-5,5′-pyrimidine]-2′,4′,6′(1′H,3′H)-trione] | 1470 nM |
| C[C@@H]1CN2c3ccc(NC(=O)N4CCNC4=O)cc3CC3(C(=O)NC(=O)NC3=O)[C@H]2[C@H](C)O1 (relative stereo) [Example 76, N-[(2R,4S,4aS)-rel-2,4-Dimethyl-2′,4′,6′-trioxo-1,1′,2,3′,4,4′,4a,6′-octahydro-2′H,6H-spiro[1,4-oxazino[4,3-a]quinoline-5,5′-pyrimidin]-8-yl]-2-oxoimidazolidine-1-carboxamide] | 16500 nM |
| Cc1nnc(C)n1/N=C/c1cc2c(c(F)c1F)N1C[C@@H](C)O[C@@H](C)[C@@H]1C1(C2)C(=O)NC(=O)NC1=O (relative stereo) [Example 47, (2R,4S,4aS)-rel-8-{(E)-[(3,5-Dimethyl-4H-1,2,4-triazol-4-yl)imino]methyl}-9,10-difluoro-2,4-dimethyl-1,2,4,4a-tetrahydro-2′H,6H-spiro[1,4-oxazino[4,3-a]quinoline-5,5′-pyrimidine]-2′,4′,6′(1′H,3′H)-trione] | 3670 nM |
| C[C@@H]1CN2c3c(cc(C(=O)NC4CCN(C(=O)OC(C)(C)C)CC4)c(F)c3F)CC3(C(=O)NC(=O)NC3=O)[C@H]2[C@H](C)O1 (relative stereo) [Example 67, tert-Butyl 4-({[(2R,4S,4aS)-rel-9,10-difluoro-2,4-dimethyl-2′,4′,6′-trioxo-1,1′,2,3′,4,4′,4a,6′-octahydro-2′H,6H-spiro[1,4-oxazino[4,3-a]quinoline-5,5′-pyrimidin]-8-yl]carbonyl}amino)piperidine-1-carboxylate] | 12000 nM |
| C/C(=N\NC(=O)CC#N)c1cc2c(c(F)c1F)N1C[C@@H](C)O[C@@H](C)[C@@H]1C1(C2)C(=O)NC(=O)NC1=O (relative stereo) [Example 53, 2-Cyano-N′-{(1E)-1-[(2R,4S,4aS)-rel-9,10-difluoro-2,4-dimethyl-2′,4′,6′-trioxo-1,1′,2,3′,4,4′,4a,6′-octahydro-2′H,6H-spiro[1,4-oxazino[4,3-a]quinoline-5,5′-pyrimidin]-8-yl]ethylidene}acetohydrazide] | 1640 nM |
| COC(=O)N/N=C(\C)c1cc2c(c(F)c1F)N1C[C@@H](C)O[C@@H](C)[C@@H]1C1(C2)C(=O)NC(=O)NC1=O (racemic) [Example 49, Methyl (2E)-2-{1-[(2R,4S,4aS)-rel-9,10-difluoro-2,4-dimethyl-2′,4′6′-trioxo-1,1′,2,3′,4,4′,4a,6′-octahydro-2′H,6H-spiro[1,4-oxazino[4,3-a]quinoline-5,5′-pyrimidin]-8-yl]ethylidene}hydrazinecarboxylate] | 450 nM |
| C[C@@H]1CN2c3c(cc(C(=O)NC4CCOC4=O)c(F)c3F)CC3(C(=O)NC(=O)NC3=O)[C@H]2[C@H](C)O1 (relative stereo) [Example 61, (2R,4S,4aS)-rel-9,10-Difluoro-2,4-dimethyl-2′,4′,6′-trioxo-N-(2-oxotetrahydrofuran-3-yl)-1,1′,2,3′,4,4′,4a,6′-octahydro-2′H,6H-spiro[1,4-oxazino[4,3-a]quinoline-5,5′-pyrimidine]-8-carboxamide] | 4840 nM |
| Cc1nnc(C#Cc2cc3c(cc2F)N2C[C@@H](C)O[C@@H](C)[C@@H]2C2(C3)C(=O)NC(=O)NC2=O)s1 (relative stereo) [Example 25, (2R,4S,4aS)-rel-9-Fluoro-2,4-dimethyl-8-[(5-methyl-1,3,4-thiadiazol-2-yl)ethynyl]-1,2,4,4a-tetrahydro-2′H,6H-spiro[1,4-oxazino[4,3-a]quinoline-5,5′-pyrimidine]-2′,4′,6′(1′H,3′H)-trione] | 870 nM |
| C[C@@H]1CN2c3c(cc(C#Cc4ccc(-c5ccn[nH]5)s4)c(F)c3F)CC3(C(=O)NC(=O)NC3=O)[C@H]2[C@H](C)O1 (relative stereo) [Example 17, (2R,4S,4aS)-rel-9,10-Difluoro-2,4-dimethyl-8-{[5-(1H-pyrazol-5-yl)thiophen-2-yl]ethynyl}-1,2,4,4a-tetrahydro-2′H,6H-spiro[1,4-oxazino[4,3-a]quinoline-5,5′-pyrimidine]-2′,4′,6′(1′H,3′H)-trione] | 1840 nM |
